In patent US7125900B2, “Inhibitors of 11-β-hydroxy steroid dehydrogenase type 1” (Biovitrum AB, priority 2000, dated 2006):

Legend:
bone nodule formation = details: cited from earlier work
human 11-β-HSD1 enzyme = target: T1, human 11-β-HSD1 enzyme (Homo sapiens, UniProt P28845); assay: human 11-β-HSD1 enzyme assay (scintillation proximity assay); assay type: biochemical; details: human 11-β-HSD1 expressed in Pichia pastoris; Ki calculated from IC50 by Cheng-Prusoff
T1 construct: made in house; host or cells: Pichia pastoris
T1 sequence (P28845 whole entry): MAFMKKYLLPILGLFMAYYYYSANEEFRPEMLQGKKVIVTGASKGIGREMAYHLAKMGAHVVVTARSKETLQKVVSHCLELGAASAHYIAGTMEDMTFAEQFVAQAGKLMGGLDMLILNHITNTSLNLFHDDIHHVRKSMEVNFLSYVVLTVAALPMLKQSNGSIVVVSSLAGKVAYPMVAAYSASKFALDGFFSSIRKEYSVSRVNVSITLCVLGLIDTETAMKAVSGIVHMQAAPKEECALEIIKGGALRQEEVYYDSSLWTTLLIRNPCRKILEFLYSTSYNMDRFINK
From the text: [1, 2(n)—^3H]-cortisone was purchased from Amersham Pharmacia Biotech. Anti-cortisol monoclonal mouse antibody, clone 6D6.7 was obtained from Immunotech and Scintillation proximity assay (SPA) beads coated with monoclonal antimouse antibodies were from Amersham Pharmacia Biotech. NADPH, tetrasodium salt was from Calbiochem and glucose-6-phosphate (G-6-P) was supplied by Sigma. The human 11-β-hydroxysteroid dehydrogenase type-I enzyme (11-β-HSD1) was expressed in Pichia pastoris. 18-β-glycyrrhetinic acid (GA) was obtained from Sigma. The serial dilutions of the compounds were performed on a Tecan Genesis RSP 150. Compounds to be tested were dissolved in DMSO (1 mM) and diluted in 50 mM Tris-HCl, pH 7.2 containing 1 mM EDTA.
The multiplication of plates was done on a WallacQuadra. The amount of the product [^3H]-cortisol, bound to the beads was determined in a Packard, Top Count microplate liquid scintillation counter.
The 11-β-HSD1 enzyme assay was carried out in 96 well microtiter plates (Packard, Optiplate) in a total well volume of 220 μL and contained 30 mM Tris-HCl, pH 7.2 with 1 mM EDTA, a substrate mixture tritiated Cortisone/NADPH (175 nM/181 μM), G-6-P (1 mM) and inhibitors in serial dilutions (9 to 0.15 μM). Reactions were initiated by the addition of human 11-β-HSD1, either as Pichia pastoris cell homogenate or microsomes prepared from Pichia pastoris (the final amount of enzyme used was varied between 0.057 to 0.11 mg/mL). Following mixing, the plates were shaken for 30 to 45 minutes at room temperature. The reactions were terminated with 10 μL 1 mM GA stop solution. Monoclonal mouse antibody was then added (10 μL of 4 μM) followed by 100 μL of SPA beads (suspended according to the manufacturers instructions). Appropriate controls were set up by omitting the 11-β-HSD1 to obtain the non-specific binding (NSB) value.
The plates were covered with plastic film and incubated on a shaker for 30 minutes, at room temperature, before counting. The amount of [^3H]-cortisol, bound to the beads was determined in a microplate liquid scintillation counter.
The calculation of the Ki values for the inhibitors was performed by use of Activity Base. The Ki value is calculated from IC50 and the Km value is calculated using the Cheng Prushoff equation (with reversible inhibition that follows the Michaelis-Menten equation): […] [Cheng, Y. C.; Prushoff, W. H. Biochem. Pharmacol. 1973, 22, 3099-3108]. The IC50 is measured experimentally in an assay wherein the decrease of the turnover of cortisone to cortisol is dependent on the inhibition potential of each substance. […] Illustrative of the invention, the following Ki values have been determined in the human 11-β-HSD1 enzyme assay (see Table 1): […]

Row | Ki (human 11-β-HSD1 enzyme) | melting point | SMILES | negative glucocorticoid effect on bone nodule formation (bone nodule formation)
1 |  |  | CC1(C)[C@@H](OC(=O)CCC(=O)O)CC[C@]2(C)[C@H]3C(=O)C=C4[C@@H]5C[C@@](C)(C(=O)O)CC[C@]5(C)CC[C@@]4(C)[C@]3(C)CC[C@@H]12 [carbenoxolone] | blocked
2 | 108 nM |  | CC(=O)c1sc(NS(=O)(=O)c2ccc(Oc3cccc(Cl)c3C#N)cc2)nc1C [Example 22, N-(5-acetyl-4-methyl-1,3-thiazol-2-yl)-4-(3-chloro-2-cyanophenoxy)benzenesulfonamide] | 
3 |  | 169 °C | CCCc1csc(NS(=O)(=O)c2cccc(Cl)c2C)n1 [Example 11, 3-Chloro-2-methyl-N-(4-propyl-1,3-thiazol-2-yl)benzenesulfonamide] | 
4 | 90 nM |  | C=Cc1csc(NS(=O)(=O)c2cccc(Cl)c2C)n1 [Example 18, 3-Chloro-2-methyl-N-(4-vinyl-1,3-thiazol-2-yl)benzenesulfonamide] | 
5 | 123 nM | 228 to 229 °C | Cc1nc(NS(=O)(=O)c2c(Cl)cc(Cl)cc2Cl)sc1CC(Cl)(Cl)Cl [Example 6, 2,4,6-trichloro-N-[4-methyl-5-(2,2,2-trichloroethyl)-1,3-thiazol-2-yl]benzenesulfonamide] | 
6 |  | 178 °C | Cc1c(Cl)cccc1S(=O)(=O)Nc1nc(C(C)(C)C)cs1 [Example 15, N-(4-Tert-butyl-1,3-thiazol-2-yl)-3-chloro-2-methylbenzenesulfonamide] | 
7 | 122 nM |  | Cc1csc(NS(=O)(=O)c2cccc(Cl)c2C)n1 [Example 3, 3-Chloro-2-methyl-N-(4-methyl-1,3-thiazol-2-yl)benzenesulfonamide] | 
